Measured values: US8377651B2, “Method for detecting Escherichia coli” (Systagenix Wound Management (US), Inc., priority 2003, dated 2013)
Primed or numbered codes have the meaning given here. No end group written: not given here. *: point of attachment. Dabcyl″ = CN(C)c1ccc(/N=N/c2ccc(C(=O)*)cc2)cc1; EDANS = O=S(=O)(O)c1cccc2c(NCCN*)cccc12; Dabcyl′ = not defined here

What was measured:
E. coli [1] = assay: Protease assay with modified (lysine-tagged) substrate and bacterial cultures; type: cell-based, Escherichia coli; conditions: cultures of Pseudomonas, S. aureus, S. epidermidis, S. salivarius, S. pyogenes, Enterococcus, Serratia, 37° C., FIG. 5
Protocol: The protease assay, described herein for detection of E. colt was run with the modified version of T2, T3. Bacteria (Pseudomonas, E. coli, S. aureus, S. epidermidis, S. salivarius, S. pyogenes, Enterococcus, and Serratia) were grown in an incubator overnight at 37° C. in 5 mL BHI (Brain Heart Infusion) media. The assays were run in 20 mM tris buffer (pH 7.4) with 150 mM NaCl added. The reaction was carried out with 7 μL of culture including cells and media and […] (5 mg/mT, in water) in 100 μL total volume at 37° C. The reaction was followed on a fluorimetric plate reader using an excitation wavelength of 355 nm and an emission wavelength of 485 nm.

[2] = tested on: secreted protease from E. coli; assay: Protease assay with bacterial culture supernatants; type: biochemical, Escherichia coli; conditions: for protease activity with culture supernatant: E. coli culture supernatant
Protocol: (§1) The bacteria were grown in an incubator overnight at 37° C. in 5 mL BHT (Brain Heart Infusion) media. Each of the resulting cultures was split into two samples. One was used as a culture, and the other was spun down by centrifugation and the supernatant was collected. The assays were run in 20 mM tris buffer (pH 7.4) with 150 mM NaCl added. The reaction was carried out with 5 μL of culture or supernatant and 5 μL of peptide substrate (10 mg/mL in water) in 100 μL total volume at 37° C. The reaction was followed on a fluorimetric plate reader using an excitation wavelength of 355 nm and an emission wavelength of 485 nm.
(§2) To test whether the protease is membrane associated, as expected for E. coli OmpT, the protease assays were repeated with the supernatants obtained from each bacterial culture.

Pseudomonas = assay: Protease assay, labeled peptide substrate with bacterial culture (cells and media); type: cell-based; conditions: Pseudomonas culture incl. cells and media; 20 mM tris pH 7.4, 150 mM NaCl, 37° C.; FIG. 1
Protocol: (§3) The peptide substrates used here were labeled with the fluorescent probe edans (5((2-aminoethyl)amino)naphthalene-1-sulfonic acid) and the quencher dye molecule dabcyl ((4-(4-(dimethylamino)phenyl)azo)benzoic acid). The labeled peptides ecot1 (T1) and ecot2 (T2) sequences used are as follows:
as §1
(§4) The first set of experiments was performed by addition of the bacterial culture directly into the assay solution. The protease OmpT is a membrane bound protein and would not be expected to be found secreted into the media. The first assay to be run used the peptide ecot1(T1) as substrate.

E. coli cells [3] = assay: as above; type: cell-based, Escherichia coli; conditions: for protease activity / cleavage of substrate (relative fluorescence): E. coli culture incl. cells and media, 20 mM tris pH 7.4, 150 mM NaCl, 37° C., ex 355 nm, em 485 nm, FIG. 1, 2
Protocol: as §3, §1, §4

[4] = tested on: protease from Pseudomonas secreted into solution; assay: Protease assay with bacterial culture supernatants; type: biochemical
Protocol: as §1, §2

E. coli [5] = assay: Protease assay in reaction buffer with 5% fetal bovine serum; type: cell-based, Escherichia coli; conditions: buffer plus 5% fetal bovine serum; FIG. 3
Protocol: as §1
The 12 peptide substrate was further tested for cross reactivity with the types of conditions and molecules that may be present in a wound environment. A fluid that may be present in a wound, at least initially, is serum. In order to test for reactivity with serum the reaction buffer was modified to by addition 5% fetal bovine serum and the protease assay was repeated, using the 12 peptide substrate.

E. coli cells [6] = assay: Protease assay in simulated wound fluid buffer (5% bovine serum albumin); type: cell-based, Escherichia coli; conditions: tris-buffered saline plus 5% (by weight) bovine serum albumin, FIG. 4
Protocol: as §1
The protease assay was also tested in a simulated wound fluid buffer. The buffer was tris-buffered saline, as described above, to which 5% (by weight) bovine serum albumin was added. The protease assay was repeated, again using the 12 peptide substrate.

[7] = tested on: secreted protease from any of the other bacteria tested; assay: Protease assay with bacterial culture supernatants; type: biochemical
Protocol: as §1, §2

E. coli cultures = assay: Biosensor: his-tagged peptide linked to nickel binding resin exposed to cultures; type: cell-based, Escherichia coli; conditions: E. coli cultures versus BHI media without bacteria
Protocol: Metal chelate (affinity binding) interactions can provide a stronger bond to biological molecules. A his-tag built into the peptide substrate, for example T4 can be used to allow linkage to a nickel binding resin. The resin is incubated with a suitable culture, for example, E. coli for 30 minutes at 37° C. After centrifugation the buffer is removed and the pelleted resin is imaged. The fluorescence produced by the peptide is then detected.

KKAS(E-edans)VSRRRRRGG(K-dabcyl) (chain 1 KKASE(EDANS); chain 2 VSRRRRRGGK(Dabcyl″); not fully specified; printed as KKAS(E-edans)VSRRRRRGG(K-dabcyl)) [T3]
specificity of assay among bacteria (cleavage, relative fluorescence over time) (E. coli [1]): specific for E. coli

Edans - DSRPVRRRRRPRVSK - Dabcyl (Edans-DSRPVRRRRRPRVSK-{Dabcyl′}) [T1]
protease activity with culture supernatant [2]: not present in the supernatant | protease activity / cleavage of substrate (relative fluorescence) (Pseudomonas): protease activity was observed | protease activity / cleavage of substrate (relative fluorescence) (E. coli cells [3]): protease activity was observed | protease activity with culture supernatant [4]: still present

Dabcyl - KVSRRRRRGGD - Edans [T2]
protease activity with culture supernatant [2]: did not show any reactivity | selectivity for membrane bound protease OmpT ([2]; conclusion from culture versus supernatant assays): selective for the E. coli outer membrane protease OmpT | detection of E. coli in presence of serum (cleavage, relative fluorescence) (E. coli [5]): detection of the presence of E. coli in the E. coli sample occurred | protease activity / cleavage of substrate (relative fluorescence) (E. coli cells [3]): reacted with this substrate | selectivity of substrate among the bacteria tested (E. coli cells [3]; cultures of various bacteria incl. cells and media, FIG. 2): efficient and selective for E. coli | protease reactivity in simulated wound fluid (E. coli cells [6]): not affected by the simulated wound fluid buffer | selectivity and speed as probe in simulated wound fluid (E. coli cells [6]; various bacteria): rapid and selective probe for the detection of E. coli cells | reactivity with secreted protease, culture supernatants [7]: did not show any reactivity

CHHHAS(E-edans)VSRRRRRGG(K-dabcyl) [T4]
detection of E. coli by resin-bound peptide fluorescence (E. coli cultures): E. coli was detected
